A short description of this data set: Evans blue dye volume distribution in rat brain after CED or ultrasound-assisted CED (UCED) infusion into the caudate. It is filed as in vivo, Sprague-Dawley rats. To be noted: for total distribution volume of EBD: 30 min. As to the method:
A total of 40 Sprague-Dawley rats (350 to 450 g) were divided into two equal groups and further divided into four equal subgroups (n=5 in each). The rats were anesthetized, secured into ear bars on a stereotaxic apparatus, and a craniotomy was performed. The caudate of the rat brain was infused with 0.25 wt % Evans blue dye (EBD) in Phosphate-Buffered Saline (PBS) at two different infusion rates of 0.25 μL/min for group 1, and 0.5 μL/min for group 2. […] Using the TCA without ultrasound, the four control subgroups were infused without and with microbubbles (CED and CED+MB). The four UCED subgroups (UCED and UCED+MB) followed the same protocol with the addition of simultaneous continuous wave 1.34 MHz ultrasound operating at a total acoustic power of 0.11+/−0.005 W and peak spatial intensity at the cannula tip of I=49.7 mW/cm^2. Frozen sectioning and histology were performed on the brains, and infusion distribution was three-dimensionally reconstructed using MatLab® analysis. Hematoxylin and Eosin (H&E) staining was used to assess tissue damage and morphological changes to the brain. The application of UCED and UCED+MB improved EBD total volumetric distribution by 2.24 to 3.25 and 1.16 to 1.70 times, respectively (p<0.001). On gross and histological examination, no ultrasound or microbubble related damage to the brain tissue was found. The TCA and battery-powered ultrasound device show promise to improve the distribution of infusate during CED in clinical practice.
Rats were anesthetized and euthanized by procedures approved by the Institutional Animal Care and Use Committee (IACUC) at Cornell University. A total of 40 Sprague-Dawley rats (350 to 450 g) were divided into two groups (designated Groups 1 and 2) with four subgroups (5 rats in each subgroup). Animals were anesthetized by inhalation of isoflurane gas and secured in a stereotaxic frame. The head was shaved, 0.5 ml of bupivicaine was applied under the skin as a local anesthetic and an incision was made in the skin along the dorsal midline of the skull. A small craniotomy (6-7 mm diameter) was made over the left side of the exposed skull using a dental drill. The TCA was guided using a micromanipulator to +0 mm anterior, +3 mm lateral and −5.5 mm ventral from bregma, lowered at 0.25 mm per second into the caudate of the rat brain and allowed to equilibrate for two minutes. 1-2 ml of artificial cerebral spinal fluid (aCSF) and a gel-foam dam was used to couple acoustic energy from the face of the TCA into the rodent brain. The TCA was powered on with the pocket-sized ultrasound system at the +/−11.1 V setting and infusion began.
For each rat, the entire experiment lasted a total of 30 min. The control subgroups of CED and CED+MB (n=5 in each) were infused using the TCA with no ultrasound therapy for 30 min. For the experimental subgroups of UCED and UCED+MB (n=5 in each), infusion and ultrasound exposure at an acoustic power of 0.11+/−0.005 W, and TCA face intensity of 0.095 W/cm^2 which corresponded to a cannula tip intensity of 0.0497 W/cm^2 for 30 min was applied simultaneously. Filtered Evan's blue dye (EBD) 0.25 wt % in phosphate buffered saline (PBS) without or with 5×10^5 stabilized microbubbles per μL with median diameter of 2.5 μm (Targestar™-P, Targeson Inc.) was infused using a microinfusion pump (Worker Bee™, Bioanalytical Systems, Inc.).
The starting infusion flow rate for the experiments of Group 1 was 0.05 μL/min for 5 min; the infusion flow rate was then increased to 0.1 μL/min for an additional 5 min, to a final flow rate of 0.25 μL/min for 20 min. The starting infusion flow rate of Group 2 was 0.1 μL/min for 5 min; the infusion flow rate was then increased to 0.25 μL/min for an additional 5 min, to a final flow rate of 0.5 μL/min for 20 min.
After 30 min of simultaneous infusion and ultrasound therapy the experiment was stopped. The TCA was left in the tissue for 1-2 min before being removed while euthanasia via cardiac urethane injection was performed. […]

As to `Cc1cc(-c2ccc(/N=N/c3ccc4c(S(=O)(=O)O)cc(S(=O)(=O)O)c(N)c4c3O)c(C)c2)ccc1/N=N/c1ccc2c(S(=O)(=O)O)cc(S(=O)(=O)O)c(N)c2c1O` [EBD, Evans blue dye], the “total distribution volume of EBD” value by setting is: (group 1, 0.25 μL/min infusion, left caudate, CED) 13.6 mm^3; (group 1, 0.25 μL/min infusion, left caudate, CED+MB) 15.9 mm^3; (group 1, 0.25 μL/min infusion, left caudate, UCED) 33.1 mm^3; (group 1, 0.25 μL/min infusion, left caudate, UCED+MB) 27.0 mm^3; (group 1, 0.25 μL/min infusion, left hemisphere, CED (no ultrasound)) 20.6 mm^3; (group 1, 0.25 μL/min infusion, left hemisphere, CED+MB (microbubbles, no ultrasound)) 19.7 mm^3. Besides, the “total distribution volume of EBD” value is reported as 46.3 mm^3 (group 1, 0.25 μL/min infusion, left hemisphere, UCED (1.34 MHz ultrasound)); 26.9 mm^3 (group 1, 0.25 μL/min infusion, left hemisphere, UCED+MB); 70.2 mm^3 (group 2, 0.5 μL/min infusion, left caudate, UCED); 30.2 mm^3 (group 2, 0.5 μL/min infusion, left caudate, UCED+MB); 37.4 mm^3 (group 2, 0.5 μL/min infusion, left hemisphere, CED); 31.9 mm^3 (group 2, 0.5 μL/min infusion, left hemisphere, CED+MB). Besides, the “total distribution volume of EBD” value was determined as 111 mm^3 (group 2, 0.5 μL/min infusion, left hemisphere, UCED) and 37.1 mm^3 (group 2, 0.5 μL/min infusion, left hemisphere, UCED+MB). Moreover, the “increase of EBD distribution volume” value reads like this: (group 1, 0.25 μL/min, left caudate, UCED compared to CED) 2.44 ×; (group 1, 0.25 μL/min, left caudate, UCED+MB compared to CED+MB) 1.7 ×; (group 1, 0.25 μL/min, left hemisphere, UCED compared to CED) 2.24 ×; (group 1, 0.25 μL/min, left hemisphere, UCED+MB compared to CED+MB) 1.37 ×; (group 2, 0.5 μL/min, left caudate, UCED compared to CED) 3.25 ×; (group 2, 0.5 μL/min, left caudate, UCED+MB compared to CED+MB) 1.54 ×. For the same compound, the “increase of EBD distribution volume” value (group 2, 0.5 μL/min, left hemisphere, UCED compared to CED) stood at 2.96 × and the “increase of EBD distribution volume” value (group 2, 0.5 μL/min, left hemisphere, UCED+MB compared to CED+MB) is 1.16 ×.

(Values after patent publication US10537725B2, “Ultrasound-assisted convection enhanced delivery of compounds in vivo with a transducer cannula assembly” (CORNELL UNIVERSITY, priority 2010, dated 2020).)
